Experimental data reported in patent US12448394B2, “Heterocyclic pyrazole derivatives as type III receptor tyrosine kinase inhibitors” (DEVELOPMENT CENTER FOR BIOTECHNOLOGY, priority 2019, dated 2025).

Legend:
[1] = test system: A375 melanoma cell with BRAF V600E mutation; assay: A375 cell proliferation assay (counter screen); format: cell-based, human; conditions: Homo sapiens, A-375, A375 cells, 72 hours treatment, CellTiter96, read-out: anti-proliferation activity A375 BRAF V600E, IC50 ranking
Outline: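 A375 cells (BRAF V600E) seeded at 2000 cells/well in DMEM with 10% FBS, settled overnight at 37° C, 5% CO2, then exposed to increasing compound concentrations for 72 hours. Viability read by MTS-type CellTiter96 AQueous reagent, absorbance at 490 nm after 2–4 hours.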

[2] = test system: Molm-14 human acute myeloid leukemia cell with FLT3-ITD mutation; assay: Molm-14 cell proliferation assay (CellTiter 96); format: cell-based; conditions: Homo sapiens; Molm-14 cells, 72 hours treatment, CellTiter96; read-out: anti-proliferation activity Molm-14 (FLT3-ITD), IC50 ranking
Outline: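 Molm-14 (FLT3-ITD AML) cells in RPMI 1640 with 10% heat-inactivated FBS were seeded at 25000 cells/well, incubated overnight at 37° C, 5% CO2, then treated with increasing compound concentrations for 72 hours. Viability was read as absorbance at 490 nm after 2˜4 hours with CellTiter96 AQueous One reagent.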

[3] = test system: THP-1 human acute monocytic leukemia cell with NRAS G12D mutation; assay: THP-1 cell proliferation assay (counter screen); format: cell-based; conditions: Homo sapiens, THP-1 cells, 72 hours treatment, CellTiter96, read-out: anti-proliferation activity THP-1 NRAS N12D, IC50 ranking
Outline: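 THP-1 cells (NRAS G12D, growth independent of class III RTK signaling) seeded at 5000 cells/well overnight, then exposed to increasing compound concentrations for 72 h at 37° C, 5% CO2. Viability read by CellTiter96 AQueous One reagent (2–4 h) as absorbance at 490 nm.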

[4] = test system: HCC827 NSCLC cell with EGFR exon 19 deletion mutation; assay: HCC827 cell proliferation assay (counter screen); format: cell-based, human; conditions: Homo sapiens, HCC827 cells, 72 hours treatment, CellTiter96, read-out: anti-proliferation activity HCC827 EGFR Exon19 del, IC50 ranking
Outline: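 HCC827 cells (EGFR exon 19 deletion) were seeded at 8000 cells/well in RPMI1640 with 10% FBS, then exposed to increasing compound concentrations for 72 h at 37 °C. Viability was read by CellTiter96 AQueous One (MTS), absorbance 490 nm after 2–4 h.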

[5] = test system: MV4-11 human acute myeloid leukemia cell with FLT3-ITD mutation; assay: MV4-11 cell proliferation assay (CellTiter 96); format: cell-based; conditions: Homo sapiens, MV4-11, 72 h, MV4-11 cells, 72 hours treatment, CellTiter96; read-out: anti-proliferation activity MV4-11 (FLT3-ITD), IC50 ranking
Outline: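 Cells seeded at 6500/well in IMDM with 10% heat-inactivated FBS, left overnight at 37 °C, 5% CO2, then exposed to increasing compound concentrations for 72 h. Viability read as absorbance at 490 nm after 2–4 h with CellTiter96 AQueous One reagent.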

[6] = test system: phosphorylation of FLT3 and its down-stream effector STAT5; assay: Western blotting of p-FLT3 and p-STAT5 in MV4-11 cells; format: cell-based; conditions: Homo sapiens; at 30 nM treatment, 3 hours, FLT3-ITD positive MV4-11 leukemia cells; read-out: inhibition activity against phosphorylation of FLT3 and its down-stream effector STAT5
Outline: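 MV4-11 cells held overnight in IMDM with 0.1% FBS, then 3 million cells treated with compound for 3 h. Whole lysates immunoblotted for p-FLT3 (Tyr-591), p-STAT5 (Tyr-694) and actin. Band intensities at 30 nM compared to DMSO control; % inhibition = (1 − relative intensity) × 100.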

SMILES	IC50 [2] [nM]	IC50 [5] [nM]	IC50 [1] [nM]	IC50 [3] [nM]	IC50 [4] [nM]	inhibition at 0.03 µM [6] [%]
C[C@@H]1CN(Cc2cccc(-c3cc4c(s3)Cc3c(-c5ccc6cnn(C)c6c5)n[nH]c3-4)c2)C[C@H](C)O1 [Compound 12, (2S,6R)-2,6-dimethyl-4-(3-(3-(1-methyl-1H-indazol-6-yl)-1,4-dihydrothieno [2′,3′:4,5]cyclopenta[1,2-c]pyrazol-6-yl)benzyl) morpholine]	100 to 300	30 to 100	> 10000	> 10000	> 10000	> 50
CCC(c1ccc(-c2cc3c(s2)Cc2c(-c4ccc5cnn(C)c5c4)n[nH]c2-3)cc1)N1CCOCC1 (stereo not drawn) [Compound 28, 4-(1-(4-(3-(1-methyl-1H-indazol-6-yl)-1,4-dihydro-thieno[2′,3′:4,5]cyclopenta [1,2-c]pyrazol-6-yl)phenyl)propyl)morpholine]	30 to 100	30 to 100	> 10000	> 10000	> 10000	> 50
Cn1ncc2ccc(-c3n[nH]c4c3Cc3sc(-c5ccc(CN6CCOCC6)cc5F)cc3-4)cc21 [Compound 32, 4-(3-fluoro-4-(3-(1-methyl-1H-indazol-6-yl)-1,4-dihydrothieno [2′,3′:4,5]cyclopenta [1,2-c]pyrazol-6-yl)benzyl)morpholine]	100 to 300	30 to 100	> 10000	> 10000	> 10000	> 50
Cn1ncc2ccc(-c3n[nH]c4c3Cc3sc(C5CCN(C(=O)OC(C)(C)C)CC5)cc3-4)cc21 [Compound 58, tert-butyl-4-(3-(1-methyl-1H-indazol-6-yl)-1,4-dihydrothieno[2′,3′:4,5]cyclopenta[1,2-c]pyrazol-6-yl)piperidine-1-carboxylate]	100 to 300	30 to 100	> 10000	> 10000	> 10000	> 50
CN(C)C(=O)c1ccc(-c2cc3c(s2)Cc2c(-c4ccc5cnn(C)c5c4)n[nH]c2-3)cc1 [Compound 49, N,N-dimethyl-4-(3-(1-methyl-1H-indazol-6-yl)-1,4-dihydrothieno [2′,3′:4,5]cyclopenta [1,2-c]pyrazol-6-yl) benzamide]	< 30	< 30	> 10000	> 10000	> 10000	> 50

The next lines start with results.

IC50 [2] [nM]	IC50 [5] [nM]	SMILES	IC50 [1] [nM]	IC50 [3] [nM]	IC50 [4] [nM]	inhibition at 0.03 µM [6] [%]
< 30	< 30	Cn1ncc2ccc(-c3n[nH]c4c3Cc3sc(-c5ccc(CN6CCCC6=O)cc5)cc3-4)cc21 [Compound 64, 1-(4-(3-(1-methyl-1H-indazol-6-yl)-1,4-dihydro-thieno[2′,3′:4,5]cyclopenta [1,2-c]pyrazol-6-yl)benzyl)pyrrolidin-2-one]	> 10000	> 10000	> 10000	> 50
< 30	< 30	CC1C(=O)N(C)CCN1Cc1ccc(-c2cc3c(s2)Cc2c(-c4ccc5cnn(C)c5c4)n[nH]c2-3)cc1 (stereo not drawn) [Compound 65, 1,3-dimethyl-4-(4-(3-(1-methyl-1H-indazol-6-yl)-1,4-dihydrothieno [2′,3′:4,5]cyclopenta [1,2-c]pyrazol-6-yl)benzyl)piperazin-2-one]	> 10000	> 10000	> 10000	> 50
< 30	< 30	Cn1ncc2ccc(-c3n[nH]c4c3Cc3sc(-c5csc(C(=O)N6CCOCC6)n5)cc3-4)cc21 [Compound 60, (4-(3-(1-methyl-1H-indazol-6-yl)-1,4-dihydro-thieno[2′,3′:4,5]cyclopenta [1,2-c]pyrazol-6-yl)thiazol-2-yl)(morpholino) methanone]	1000 to 10000	1000 to 10000	1000 to 10000	> 50
